How the values were obtained:
Assay type in all cases: functional
H9c2 [1] = experiment: Cytoprotective activity against ischemia-hypoxia injury in rat H9c2 cells assessed as increase in cell viability at 0.1 uM by MTT assay relative to control
H9c2 [2] = experiment: Cytoprotective activity against ischemia-hypoxia injury in rat H9c2 cells assessed as increase in cell viability at 1 uM by MTT assay relative to control
H9c2 [3] = experiment: Cytoprotective activity against ischemia-hypoxia injury in rat H9c2 cells assessed as increase in cell viability at 0.01 uM by MTT assay relative to control
H9c2 [4] = experiment: Cytoprotective activity against ischemia-hypoxia injury in rat H9c2 cells assessed as increase in cell viability at 10 uM by MTT assay relative to control

COc1cc2c(OC)cc3c(c2cc1OC)N(C)[C@H](CC(C)=O)c1c2c(cc(OC)c1-3)OCO2
Activity (H9c2 [1]): 40.68%
Activity (H9c2 [2]): 37.74%
Activity (H9c2 [3]): 42.15%
Activity (H9c2 [4]): 29.1%

COc1cc2c(OC)cc3c(c2cc1OC)N(C)[C@@H](CC(C)=O)c1c2c(cc(OC)c1-3)OCO2
Activity (H9c2 [1]): 50.09%
Activity (H9c2 [2]): 45.29%
Activity (H9c2 [3]): 53.88%
Activity (H9c2 [4]): 44.27%

COc1cc2c(OC)cc3c(c2cc1OC)N(C)[C@@H](CO)c1c2c(cc(OC)c1-3)OCO2
Activity (H9c2 [1]): 54.72%
Activity (H9c2 [2]): 49.42%
Activity (H9c2 [3]): 47.54%
Activity (H9c2 [4]): 32.71%

COc1cc2c(OC)cc3c(c2cc1OC)N(C)[C@@H](CC(=O)C[C@H]1c2c4c(cc(OC)c2-c2cc(OC)c5cc(OC)c(OC)cc5c2N1C)OCO4)c1c2c(cc(OC)c1-3)OCO2
Activity (H9c2 [1]): 41.02%
Activity (H9c2 [2]): 36.59%
Activity (H9c2 [3]): 40.26%
Activity (H9c2 [4]): 27.48%

COc1cc2c(OC)cc3c(c2cc1OC)N(C)C(CC(=O)CC(C)(C)O)c1c2c(cc(OC)c1-3)OCO2 (racemic)
Activity (H9c2 [1]): 41.47%
Activity (H9c2 [2]): 44.75%
Activity (H9c2 [3]): 41.8%
Activity (H9c2 [4]): 32.63%

COc1cc2c(OC)cc3c(c2cc1OC)N(C)[C@H](CC(=O)C[C@H]1c2c4c(cc(OC)c2-c2cc(OC)c5cc(OC)c(OC)cc5c2N1C)OCO4)c1c2c(cc(OC)c1-3)OCO2
Activity (H9c2 [1]): 50.56%
Activity (H9c2 [2]): 44.26%
Activity (H9c2 [4]): 44.75%

COc1cc2c(OC)cc3c(c2cc1OC)N(C)[C@H](CO)c1c2c(cc(OC)c1-3)OCO2
Activity (H9c2 [1]): 46.01%
Activity (H9c2 [2]): 50.74%
Activity (H9c2 [3]): 41.38%
Activity (H9c2 [4]): 36.62%
